Experimental data published in US8492341B2, “Amyloid-β binding peptides” (Alzyme Pty Ltd., priority 2006, dated 2013).
Square brackets hold non-standard residues; d marks the D form.

Key:
human Aβ42 = experiment: MTS cell viability assay of MP2 analogues, cells treated with human Aβ42 (20 μM); assay type: cell-based; conditions: peptide 400 μM
Description: FIG. 7 illustrates the effect of various peptide analogues of the peptide analogue of SEQ ID NO:2 on cell viability associated with human Aβ1-42. Cells were treated with human Aβ42 peptide (20 μM) in the absence or presence of increasing doses of MP2, MP4, MP5 or MP6 (n=6, for each peptide). Cell viability was assessed by the MTS assay.
Cells were treated with human Aβ42 peptide (20 μM) in the absence or presence of increasing doses of MP2, MP4, MP5 or MP6 (n=6, for each peptide). Cell viability was assessed by the MTS assay.

Aβ = Aβ (Homo sapiens, UniProt P05067); experiment: Copper-induced Aβ oligomer generation (SDS-PAGE, WO2 immunoblot); assay type: biochemical; conditions: Aβ 5 uM, Cu+2 25 μM, 0-1000 μM peptide, 37 C, 24 hours; vs reverse peptide control
Chain of Aβ (P05067 672-713 limits assumed): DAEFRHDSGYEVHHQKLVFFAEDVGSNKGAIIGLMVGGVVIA
Description: Incubation of Aβ with copper generates cross-linked oligomeric species (Atwood et al., 2000: Cell Mol Biol, 46: 777-783; Atwood et al., 2004: Biochemistry, 43: 560-568). In this experiment, Aβ (5 uM) is incubated with Cu+2 (25 μM) and 0-1000 μM of the modified peptides at 37 C for 24 hours. After the incubation period, 20 ng is loaded onto an SDS-PAGE gel and immunoblotted with WO2 antibody. Compared to the reverse peptide control, all the modified peptides inhibited the generation of Aβ oligomers at various concentration.

[1] = parameters: species or system mice (129×1 strain); conditions: mouse, in vivo
Description: Another essential requirement of drug development is the ability of the peptide to cross the BBB and impact on targeted tissue. To measure the ability of 15merTNP and peptide analogue MP2 to cross the BBB, intracerebroventricular (i.c.v) delivery was assessed. The use of i.c.v injections on animal models allows for high doses to be delivered straight to the ventricular spaces where it can cross the parenchyma layer to the brain matter.
For i.c.v injections, control mice (129×1 strain) were anesthetized with intraperitoneal ketamine/xylazine at a dose of 10 ml/kg and then administered with 200 μg of either peptide (90 nmol). Both radioactive (^3H-labelled; hot) and non-radioactive (cold) was used to allow physiological doses of peptide to be delivered.
To determine whether the peptides had effectively penetrated into the brain parenchyma, a capillary depletion experiment was performed. After 25 min post injection the animal was sacrificed and the brain removed. This was homogenized and centrifuged for 10 min at 13000 rpm at 4° C. resulting in a supernatant containing predominately radioactivity from the cortex and a pellet with radioactivity from the capillaries and endothelium. A comparison of radioactivity in each sample was conducted to assess percentage of peptide movement into the cortex. The amount of radioactivity in the capillary pellet of mice that were perfused and not perfused with saline solution was compared to determine the percentage of peptide bound to the luminal surface of the capillaries and sequestered by brain endothelial cells.
A detailed necropsy was performed on each animal following perfusion to thoroughly assess peptide movement throughout peripheral organs, central nervous tissue and blood. […] Thus the concentration of labelled tritium could be measured per mass of sample and using this and the known ratio of non-labelled peptide present, the concentration of total peptide could be determined.
The pharmacokinetic profile of peptide analogue MP2 over four time points, post i.c.v injection into the CNS was determined. […]

[2] = In vitro peptide stability in 10% rodent brain homogenate; assay type: in vitro ADME, rat; conditions: 10% brain homogenate, 37° C.
Description: For the peptide stability assay in vitro, both 15merTNP and peptide analogue MP2 were incubated separately with fresh 10% rodent brain homogenate to model degradation in tissues. In order to create a physiological dose of peptide in the in vitro assay, both radioactive (^3H-labelled; hot) and non-radioactive (cold) peptides were combined in a set ratio. Cold peptide was added at a dose of […] per ml of 10% brain homogenate. Hot peptide was added at a dose of 250 μCi per ml 10% brain homogenate. Following the addition of hot and cold peptide; the homogenate was vortexed and incubated for different time points. The reaction was stopped by adding complete protease inhibitor cocktail and the samples analysed.
The biological stability of the peptides was evaluated by incubating them (90 nmol) in fresh 10% rodent brain homogenate for different times at 37° C. The amount of intact peptide was estimated by running the supernatant of the homogenate on a 16% Tricine gel to separate peptide that had not had its amino acid sequence degraded. FIG. 3 illustrates the relative stability of 15merTNP and peptide analogue MP2 over two hours run on a 16% Tricine gel from time 0-120 min with samples run in duplicate. The values correspond to the in vitro half-life, which is defined as the time needed for 50% degradation of the peptide.

M17 Neuroblastoma cells = experiment: MTS cell viability assay, cell death induced by human Aβ1-42 (40 μM); assay type: cell-based; conditions: for reduction of cell death associated with human Aβ1-42: Aβ1-42 40 μM
Description: M17 Neuroblastoma cells were seeded in a 48 well plate at a density of 50,000 cells per well. The plate was incubated for 24 hours at 37° C. in media (OPTI-MEM) containing 10% FCS. The next day the cells were treated with human Aβ1-42 (40 μM) in the presence or absence of the peptides 15merTNP or peptide analogue MP2 (FIG. 2). The peptides were provided at concentrations ranging from 20-400 μM prepared in Neuro basal media containing B27 supplement without antioxidants. Following incubation (4 days at 37° C.), cell viability was assessed using the CellTiter 96® AQueous One Solution cell proliferation assay (MTS; Promega, Wis., USA) as per manufactures instructions. Briefly, 200 μl of MTS reagent (1/10 dilution) was added directly to the culture wells and the plate incubated for 3 hours at 37° C. Following incubation, 150 μl of the solution was transferred to a 96 well plate and the absorbance is determined spectrophotometrically at 490 nm.
Similar to the MTT assay, the MTS assay is a colorimetric method for determining the number of viable cells in proliferation or cytotoxicity assays. The principle of the MTS assay is the same as the MTT assay, except for the tetrazolium compound that is bio-reduced by the mitochondria of the cells, forming a coloured formazan product that is soluble (rather than insoluble for the MTT assay) in tissue culture medium. This conversion is accomplished by NADPH or NADH produced by dehydrogenase enzymes in metabolically active cells: Berridge M V. And Tan A. S. (1993) Characterisation of the cellular reduction of 3-(4,5-dimethylthiazol-2-yl)-2,5-diphenyltetrazolium bromide (MTT): Subcellular localisation, substrate dependence and involvement of mitochondrial electron transport in MTT reduction. Arch. Biochem. Biophys. 303, 474-82.
The effect of human Aβ1-42 (40 μM) on cell viability was determined in triplicate in each of the 10 MTS assays (i.e. n=30) performed in this study. All data are presented as means±SEM.
The effect of peptide analogue MP2 to protect against human Aβ42-induced toxicity was then determined using the MTS assay in triplicate in two separate experiments for all doses (i.e. n=6), unless otherwise specified. The effectiveness of MP2 was compared against the 15merTNP.

human Aβ1-42 [3] = molecular target: T1, human Aβ1-42 (Homo sapiens, UniProt P05067); experiment: DCF fluorescence assay of H2O2 production (SOD-like activity) by human Aβ1-42; assay type: biochemical; conditions: 200 nM peptide, Aβ1-42 200 nM
T1 sequence (P05067 672-713): as the sequence (P05067 672-713 limits assumed) above
Description: The three candidate peptides (15merTNP, 6merPLP and 6merMTM) were examined to determine whether they could attenuate Aβ's SOD-like activity in vitro. A DCF fluorescence assay was used to assess the efficacy of these peptides on altering the production of physiological (brain) concentrations (200 nM) of human Aβ1-42.
Aβ species were prepared and the assay run as described previously (i.e. Aβ1-42 at 200 nM and Copper and Dopamine concentrations remain unchanged). Peptide analogue MP2 (SEQ ID NO:2) was added to Aβ1-42+Cu solutions at ratios ranging from 0.005:1 to 10.0:1 (i.e. a ration of 0.005:1 would contain 1 nM of respective peptide). The peptide was dissolved in PBS pH7.5. The effect of MP2 on H2O2 production by human Aβ1-42 was determined in triplicate in three separate experiments (i.e. n=9) for doses ranging from 100 to 2000 nM (FIG. 1). These were compared against the level of H2O2 produced by human Aβ1-42 [test peptide analogue MP2+positive control peptide 15merTNP; three experiments done in triplicate, […]]. All data are presented as means±SEM.
For all assays run, the 15merTNP peptide (SEQ ID NO: 3), was included as a positive control for the assay and for comparing its activity with that of the modelled peptide analogue MP2. The effect of 15merTNP (200 nM) on H2O2 production by human Aβ1-42, was determined in triplicate in each of the 12 DCF assays (i.e. n=36) performed in this study.

human Aβ1-42 [4] = molecular target: T1, human Aβ1-42; conditions: DCF fluorescence assay, 200 nM human Aβ1-42; earlier work PCT/AU02/01754; cited from earlier work

Ac-Thr-Arg-Thr-Pro-Gln-Met-Leu-Arg-Lys-NH2 (Ac-TRTPQMLRK-NH2) [MP5]
cell viability following treatment with human Aβ42 (human Aβ42): significantly increased
inhibition of Aβ oligomer formation (Aβ): most potent

Ac-DArg-DLys-DLeu-DMet-DGln-DPro-DThr-DArg-DAsn-NH2 (Ac-[dR][dK][dL][dM][dQ][dP][dT][dR][dN]-NH2; SMILES CSCC[C@@H](NC(=O)[C@@H](CC(C)C)NC(=O)[C@@H](CCCCN)NC(=O)[C@@H](CCCNC(=N)N)NC(C)=O)C(=O)N[C@H](CCC(N)=O)C(=O)N1CCC[C@@H]1C(=O)N[C@@H](C(=O)N[C@H](CCCNC(=N)N)C(=O)N[C@H](CC(N)=O)C(N)=O)[C@H](C)O) [MP6]
cell viability following treatment with human Aβ42 (human Aβ42): significantly increased

H-TNPNRRNRTPQMLKR-OH [15merTNP, Thr-Asn-Pro-Asn-Arg-Arg-Asn-Arg-Thr-Pro-Gln-Met-Leu-Lys-Arg, reference compound]
crossing of the blood brain barrier [1]: poorly
Stability in rat brain homogenate (in vitro half-life) [2]: <45 min
half-life at 2.5 mmol per ml ([2]; rat, fresh 10% brain homogenate): < 45 min
reduction of cell death associated with human Aβ1-42 (M17 Neuroblastoma cells; 80 μM peptide): 20%
reduction of cell death associated with human Aβ1-42 (M17 Neuroblastoma cells; 200 μM peptide): 30%
reduction of human Aβ1-42's H2O2 production (human Aβ1-42 [3]): around 30%
ability to modify Aβ1-42's SOD-like activity (human Aβ1-42 [4]): possessed the ability to modify Aβ1-42's SOD-like activity

human Aβ1-42: beta amyloid peptide used as toxic agent in the cell viability assays [reference compound]
reduction of cell viability (M17 Neuroblastoma cells; human Aβ1-42 40 μM alone, 4 days): ≤ 35%

Ac-Arg-Thr-Pro-Gln-Met-Leu-Lys-NH2 (Ac-RTPQMLK-NH2) [MP4]
inhibition of Aβ oligomer formation (Aβ): most potent
